Test results taken from ChEMBL document CHEMBL1649296, “Modifying culture conditions in chemical library screening identifies alternative inhibitors of mycobacteria” (Antimicrob Agents Chemother, 2009).
In brackets after ≈: the same amount, converted by molar mass. Numbered stars: 1 amine (or outer) side, 2 acyl side, 3 side chain; on linkers, the order of the positions; unused ones are H or OH. Bridge positions count the residues as written; N and C are the ends. Square brackets hold non-standard residues; d marks the D form. Peptide text beside a SMILES is read from it. * marks the point of attachment. ξ: configuration not given here. X1 = N=C1NCCC([C@H](N[*:1])C(=O)[*:2])N1; ΔAla(Z-3-ureido) = NC(=O)N/C=C(\N)C(=O)O; ξβ3hOrn = NCCCC(N)CC(=O)*; Dap = NC[C@H](N)C(=O)O

Tests used:
Assay type in all cases: functional, organism-based
[1] = tested on: Mycolicibacterium smegmatis; test: Antimycobacterial activity against Mycobacterium smegmatis by GFP-based fluorescence assay
[2] = tested on: Mycolicibacterium smegmatis; test: Antimycobacterial activity against Mycobacterium smegmatis assessed as growth inhibition in mid-logarithmic phase by spectrophotometry
[3] = tested on: Mycolicibacterium smegmatis; test: Antimycobacterial activity against Mycobacterium smegmatis grown in carbon-limited broth medium assessed as growth inhibition in mid-logarithmic phase by GFP-based fluorescence assay; details: Mycolicibacterium smegmatis
[4] = tested on: Mycolicibacterium smegmatis; test: Antimycobacterial activity against Mycobacterium smegmatis grown in carbon-limited broth medium assessed as growth inhibition in mid-logarithmic phase by spectrophotometry; details: Mycolicibacterium smegmatis
[5] = tested on: Mycolicibacterium smegmatis; test: Antimycobacterial activity against Mycobacterium smegmatis grown in Luria-Bertani broth medium assessed as growth inhibition in mid-logarithmic phase by GFP-based fluorescence assay; details: Mycolicibacterium smegmatis
[6] = tested on: Mycolicibacterium smegmatis; test: Antimycobacterial activity against Mycobacterium smegmatis grown in Luria-Bertani broth medium assessed as growth inhibition in mid-logarithmic phase by spectrophotometry; details: Mycolicibacterium smegmatis
[7] = tested on: Mycolicibacterium smegmatis; test: Antimycobacterial activity against Mycobacterium smegmatis grown in nitrogen -limited broth medium assessed as growth inhibition in mid-logarithmic phase by spectrophotometry; details: Mycolicibacterium smegmatis
[8] = tested on: Mycolicibacterium smegmatis; test: Antimycobacterial activity against Mycobacterium smegmatis grown in nitrogen -limited broth medium assessed as growth inhibition in mid-logarithmic phase by GFP-based fluorescence assay; details: Mycolicibacterium smegmatis

Compound | MIC [1] [µM] | IC50 ([1]; read-out: IC50) [nM] | MIC [2] [µM] | IC50 [2] [nM] | also measured
C[C@@H]1NC(=O)[C@@H](N)CNC(=O)[C@H](C2CCNC(=N)N2)NC(=O)/C(=C/NC(N)=O)NC(=O)[C@H](CNC(=O)CC(N)CCCN)NC1=O.N=C1NCCC([C@@H]2NC(=O)/C(=C/NC(N)=O)NC(=O)[C@H](CNC(=O)CC(N)CCCN)NC(=O)[C@H](CO)NC(=O)[C@@H](N)CNC2=O)N1 (stereo partly drawn) [CAPREOMYCIN] (H-[Dap]S[Dap](ξβ3hOrn)[ΔAla(Z-3-ureido)][X1]; lactam 1-C) | 12.5 | 1780 | 12.5 | 2120 | 
CC[C@@H](CO)NCCN[C@@H](CC)CO [ETHAMBUTOL] | 12.5 (≈ 2.55 µg/mL) | 3200 | 12.5 (≈ 2.55 µg/mL) | 3660 | 
O=C(O)c1cn(C2CC2)c2cc(N3CCNCC3)c(F)cc2c1=O [CIPROFLOXACIN] | 12.5 (≈ 4.14 µg/mL) |  | 12.5 (≈ 4.14 µg/mL) | 1980 | IC50 [1]: 1070 nM
CCc1cc(C(N)=S)ccn1 [ETHIONAMIDE] | 100 (≈ 16.6 µg/mL) | 6750 | 100 (≈ 16.6 µg/mL) | 7660 | 
CN(C)c1ccc(O)c2c1C[C@H]1C[C@H]3[C@H](N(C)C)C(O)=C(C(N)=O)C(=O)[C@@]3(O)C(O)=C1C2=O [MINOCYCLINE] |  |  |  |  | IC50 [3]: 5.02 µM; MIC [3]: 12.5 µM (≈ 5.72 µg/mL); IC50 [4]: 5.02 µM; MIC [4]: 12.5 µM (≈ 5.72 µg/mL); IC50 [5]: 6.77 µM; MIC [5]: 12.5 µM (≈ 5.72 µg/mL); IC50 [6]: 6.77 µM; MIC [6]: 12.5 µM (≈ 5.72 µg/mL); IC50 [7]: 7.23 µM; MIC [7]: 12.5 µM (≈ 5.72 µg/mL); IC50 [8]: 7.23 µM; MIC [8]: 12.5 µM (≈ 5.72 µg/mL)

Further lines, with some results ahead:

MIC [1] [µM] | IC50 ([1]; read-out: IC50) [nM] | MIC [2] [µM] | Compound | IC50 [2] [nM] | also measured
6.25 (≈ 2.78 µg/mL) | 330 | 6.25 (≈ 2.78 µg/mL) | CN(C)[C@@H]1C(O)=C(C(N)=O)C(=O)[C@@]2(O)C(O)=C3C(=O)c4c(O)cccc4[C@@](C)(O)[C@H]3C[C@@H]12 [TETRACYCLINE] | 410 | 
1.56 (≈ 0.907 µg/mL) | 480 | 1.56 (≈ 0.907 µg/mL) | CN[C@@H]1[C@H](O[C@H]2[C@H](O[C@H]3[C@H](O)[C@@H](O)[C@H](N=C(N)N)[C@@H](O)[C@@H]3N=C(N)N)O[C@@H](C)[C@]2(O)C=O)O[C@@H](CO)[C@H](O)[C@H]1O [STREPTOMYCIN] | 500 | 
6.25 (≈ 5.14 µg/mL) | 3110 | 6.25 (≈ 5.14 µg/mL) | CO[C@H]1/C=C/O[C@@]2(C)Oc3c(C)c(O)c4c(O)c(c(/C=N/N5CCN(C)CC5)c(O)c4c3C2=O)NC(=O)/C(C)=C\C=C\[C@H](C)[C@H](O)[C@@H](C)[C@@H](O)[C@@H](C)[C@H](OC(C)=O)[C@@H]1C [RIFAMPIN] | 4360 | 
